Measured values from paper PMC6222380 (Molecules : A Journal of Synthetic Chemistry and Natural …, 2018).
Where “and” joins values, the source holds several entries; their conditions need not be identical. Equal values may be shown once. Read-outs that look alike come from different tables or passages of the source. Blank lines part the entries; values can stand above or below the compound they belong to.

How the values were obtained:
CB1 receptor = molecular target: T1, CB1 receptor (Homo sapiens, UniProt P21554); assay: Competitive [3H]-CP55,940 radioligand binding assay, CB1; settings: for Further binding analysis at CB1 (binding curve outcome): curves plateaued well before 100% receptor occupancy (Figure S2)
T1 construct: transiently transfected with full-length human recombinant cDNA (OriGene, Rockville, MD, USA); host or cells: HEK293
Method: (§1) HEK293 cells were collected and transiently transfected with full-length human recombinant cDNA (OriGene, Rockville, MD, USA) containing expression clones to generate separate cell lines expressing either the CB1 or CB2 receptors (50 µg/mL) using electroporation (70 ms, single pulse, 150 volts). Transfected cells were grown in a 150 cm^2 Petri dish at 37 °C. G418 antibiotic solution (800 μg/mL) was used for selection. After selection, the HEK293 cells were further cultured until single colonies were obtained. The colonies with binding ratio (%) over 80% were chosen for binding and functional assays.
(§2) Cell plasma membranes were prepared from cells with stable expression of CB1 or CB2 receptors. Cells grown to confluency were lysed and scraped in cold 50 mM Tris-HCl buffer at pH 7.4 and then centrifuged at 1000 rpm for 10 min at 4 °C. The supernatant was discarded while the pellets were resuspended in the same buffer. A Sonic Dismembrator Model 100 (Fisher Scientific, Pittsburgh, PA, USA) was used to homogenize the cell suspension for 30 s, which was then centrifuged at 3165 rpm for 10 min at 4 °C to separate the membranes and cytosolic fractions. The supernatant was saved, and the pellet underwent the suspension and homogenization process repeated two more times with the same conditions. The supernatants were combined and centrifuged at 13,650 rpm for 40 min at 4 °C. The pellet was re-suspended in cold 50 mM Tris-HCl buffer, aliquoted into 2 mL vials, and stored at −80 °C. The total membrane protein concentration was measured using a Pierce BCA Protein Assay Kit (Thermo Scientific, Rockford, IL, USA) as per the manufacturer’s protocol.
(§3) Competitive binding assays were performed with a modified rapid filtration assay described by Ma et al. (2007) and Felder et al. (1992). […] The reaction was terminated via rapid vacuum filtration with cold Tris-HCl with 0.1% BSA through a 96-well UniFilter GF/C filter precoated with 0.5% Polyethyleneimine (PEI,) to separate bound and unbound radioligand. Filter plates were dried at 50 °C for at least 30 min, then 25 μL MicroScint-20 was applied to each filter and the plates were read on a TopCount NXT HTS Microplate Scintillation Counter (PerkinElmer, Waltham, MA). Filter bound radioactivity was recorded in counts per minute (CPM).
(§4) The percent binding of the nonlabeled control to the receptor was calculated using total, specific, and nonspecific binding. […] All the experimental data were analyzed using a nonlinear regression curve fit model using GraphPad Prism 5.0 software (GraphPad Software, Inc., San Diego, CA, USA) and the Kd value was calculated. Each compound was tested in triplicate, unless stated otherwise.
(§5) Percent displacement of radioligand was determined using the following equation:(1) % displacement of radioligand=100 –(compound.CPM−nonspecific.CPM/specific.CPM ×100)
(§6) The IC50 and Ki values were calculated from a nonlinear regression curve fit model using GraphPad Prism 5.0 software (GraphPad Software, Inc., San Diego, CA, USA).

CB2 receptor = molecular target: T2, CB2 receptor (Homo sapiens, UniProt P34972); assay: Competitive [3H]-CP55,940 radioligand binding assay, CB2; settings: for IC50: Table 1, superscript a = up to solubility limit, read-out: IC50 ± SEM CB2; for Ki: read-out: Ki ± SEM CB2
T2 construct: transiently transfected with full-length human recombinant cDNA (OriGene, Rockville, MD, USA); host or cells: HEK293
Method: as §1, §2, §3, §4, §5, §6

[1] = molecular target: T3, human cannabinoid type 1 receptor (Homo sapiens, UniProt P21554); assay: CB1 GTPγS functional assay; format: biochemical
T3 construct: transiently transfected with full-length human recombinant cDNA (OriGene, Rockville, MD, USA); host or cells: HEK293
Method: The CB1 GTPγS functional assays were performed as previously described with some modifications. The assays were performed in […] of 50 mM Tris-HCl, pH = 7.4, 150 mM NaCl, 9 mM MgCl2, 0.2 mM EDTA, 1.4 mg/mL essentially fatty acid free BSA, 50 pM [^35S]-GTPγS ([^35S]-guanosine 5′-(γ-thio) triphosphate (PerkinElmer, Waltham, Massachusetts)), and 30 μg of protein per well harvested from HEK293 cells stably transfected with a plasmid overexpressing the human cannabinoid type 1 receptor. […] Plates were incubated for 90 min at 37 °C with gentle agitation in 96-well microplates, harvested with a PerkinElmer FilterMate Harvester through Unifilter GF/B filter plates (prewetted for 30 min with 0.3% BSA), and then washed 10× with […] of ice-cold 50 mM TrisHCl, pH 7.4. The filter plates were dried at 50 °C for at least 30 min. The radioactivity retained on the filters was quantified by adding […] MicroScint20 per well, incubating the filter plate overnight at room temperature to allow the radioactivity to solubilize into the scintillation fluid, and counting on a TopCount NXT Microplate Scintillation counter. Percent over basal was calculated in Microsoft Excel by subtracting the mean basal control from each value obtained and then dividing by the basal specific activity (mean basal control∓mean nonspecific binding control). Dose response curves (± SEM) of percent over basal versus log of the molar concentration of unlabeled ligand(s) were generated by a nonlinear curve fit model using GraphPad Prism 5.0 software.

[2] = Table S1 preliminary screening, 10 μM
[3] = Table 1, initial full-curve binding, superscript a = up to solubility limit, read-out: IC50 ± SEM CB1
[4] = Table 1 and text, initial full-curve binding, read-out: Ki ± SEM CB1

T2 sequence (P34972 whole entry): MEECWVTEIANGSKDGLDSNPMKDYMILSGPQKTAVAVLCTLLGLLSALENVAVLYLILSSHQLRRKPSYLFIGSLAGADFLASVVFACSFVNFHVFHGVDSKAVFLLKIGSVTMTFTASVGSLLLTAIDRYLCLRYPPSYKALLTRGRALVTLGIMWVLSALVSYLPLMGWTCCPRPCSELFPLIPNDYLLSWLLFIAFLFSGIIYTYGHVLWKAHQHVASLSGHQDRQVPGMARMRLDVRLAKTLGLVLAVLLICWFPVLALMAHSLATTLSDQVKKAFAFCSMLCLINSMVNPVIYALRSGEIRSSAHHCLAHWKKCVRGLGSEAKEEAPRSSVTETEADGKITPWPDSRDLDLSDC
T1 sequence (P21554 whole entry): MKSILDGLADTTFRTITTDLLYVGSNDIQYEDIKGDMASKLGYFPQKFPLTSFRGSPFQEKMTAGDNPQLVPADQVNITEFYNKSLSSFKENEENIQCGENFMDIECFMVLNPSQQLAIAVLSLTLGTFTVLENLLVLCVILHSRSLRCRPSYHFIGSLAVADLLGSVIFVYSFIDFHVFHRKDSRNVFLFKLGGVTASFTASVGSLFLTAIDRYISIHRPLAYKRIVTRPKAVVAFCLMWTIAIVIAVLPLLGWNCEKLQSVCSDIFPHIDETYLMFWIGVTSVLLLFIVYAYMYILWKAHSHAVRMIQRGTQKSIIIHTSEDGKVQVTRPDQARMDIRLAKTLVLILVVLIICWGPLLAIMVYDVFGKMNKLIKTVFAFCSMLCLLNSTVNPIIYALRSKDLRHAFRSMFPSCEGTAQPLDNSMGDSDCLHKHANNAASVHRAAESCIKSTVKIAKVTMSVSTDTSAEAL
T3 sequence (P21554 whole entry): as above

SMILES: O=C(O)C(Cc1ccccc1)NCc1c(O)ccc2c(-c3ccccc3)cc(=O)oc12 (stereo not shown) [Compound 1]
% displacement at 10 μM CB1 (CB1 receptor; [2]): 14.1%

IC50 (CB2 receptor): 3.25 ± 0.5 µM | Ki (CB2 receptor; Table 1 and text): 1600 nM and 1620 nM | % displacement at 10 μM CB2 (CB2 receptor; [2]): 67.2% | EC50 [1]: 759 nM | Functional phenotype at CB1 in GTPγS assay [1]: inverse agonists | IC50 (CB1 receptor; [3]): 3.2 ± 1 µM | Ki (CB1 receptor; [4]): 1600 nM and 1620 nM | % displacement at 10 μM CB1 (CB1 receptor; [2]): 81.8%
SMILES: COc1ccc2[nH]c3c(c2c1)CCN1C(=O)CN(CCc2c[nH]c4ccccc24)C(=O)[C@]31C [Compound 2]

SMILES: COCCN1C(=O)C(O)=C(C(=O)c2ccc3c(c2)CC(C)O3)C1c1ccc(C(C)C)cc1 (stereo not shown) [Compound 3]
Ki (CB2 receptor; Table 1 and text): 2600 nM | % displacement at 10 μM CB2 (CB2 receptor; [2]): 51% and > 50% | % displacement at 10 μM CB1 (CB1 receptor; [2]): ~ 10%

SMILES: COc1ccccc1NC(=O)C1CC(O)CN1C(=O)OCc1ccccc1 (stereo not shown) [Compound 4]
% displacement at 10 μM CB1 (CB1 receptor; [2]): 13.9%

SMILES: COc1cc(C)cc2oc(=O)c(CC(=O)N[C@@H](CSCc3ccccc3)C(=O)O)c(C)c12 [Compound 5]
% displacement at 10 μM CB2 (CB2 receptor; [2]): 15.5% | % displacement at 10 μM CB1 (CB1 receptor; [2]): 14%

SMILES: Cc1cc(O)c2c(C)c(CC(=O)N[C@@H](CSCc3ccccc3)C(=O)O)c(=O)oc2c1 [Compound 6]
% displacement at 10 μM CB2 (CB2 receptor; [2]): 26.7% | % displacement at 10 μM CB1 (CB1 receptor; [2]): 28%

SMILES: COc1ccc2[nH]c3c(c2c1)CCNC3c1c(O)n(CCc2ccccc2)c(=S)[nH]c1=O (stereo not shown) [Compound 7]
% displacement at 10 μM CB2 (CB2 receptor; [2]): 15.7% | Further binding analysis at CB1 (binding curve outcome) (CB1 receptor): no true affinity

SMILES: O=C(COc1cc(O)c2c(=O)cc(-c3ccccc3)oc2c1)NCCCN1CCCC1=O [Compound 9]
% displacement at 10 μM CB2 (CB2 receptor; [2]): 30.2% | % displacement at 10 μM CB1 (CB1 receptor; [2]): 28.6%

SMILES: COc1ccc2c(ccn2CCC(=O)N[C@@H](Cc2c[nH]c3ccccc23)C(=O)O)c1 [Compound 10]
% displacement at 10 μM CB2 (CB2 receptor; [2]): 17.3% | % displacement at 10 μM CB1 (CB1 receptor; [2]): 30.2%

SMILES: COc1ccc(-n2cc(C(=O)O)c3c2C(c2ccc(O)c(OC)c2)CC(=O)N3)cc1 (stereo not shown) [Compound 11]
% displacement at 10 μM CB2 (CB2 receptor; [2]): 13.1% | % displacement at 10 μM CB1 (CB1 receptor; [2]): 37.6%

IC50 (CB2 receptor): > 5.93 µM | Ki (CB2 receptor; Table 1 and text): > 2970 nM | % displacement at 10 μM CB2 (CB2 receptor; [2]): 63% and > 50% | EC50 [1]: 1600 nM | Functional phenotype at CB1 in GTPγS assay [1]: inverse agonists | IC50 (CB1 receptor; [3]): > 5.3 µM | Ki (CB1 receptor; [4]): > 2600 nM | % displacement at 10 μM CB1 (CB1 receptor; [2]): 69.9% and > 50%
SMILES: COC(=O)CC(c1ccc2c(c1)OCO2)c1oc(CSc2ccccc2)cc(=O)c1O (stereo not shown) [Compound 12]

SMILES: O=c1[nH]n(C2CCCCCC2)c2nc3c(oc4c(O)c(O)ccc43)c(-c3ccc(O)cc3)c12 [Compound 13]
% displacement at 10 μM CB2 (CB2 receptor; [2]): 37.4% | % displacement at 10 μM CB1 (CB1 receptor; [2]): 23.1%

SMILES: COC(=O)CC(c1ccc(O)cc1)c1oc(CSc2ccccc2)cc(=O)c1O (stereo not shown) [Compound 14]
% displacement at 10 μM CB2 (CB2 receptor; [2]): 30% | % displacement at 10 μM CB1 (CB1 receptor; [2]): 18.7%

SMILES: Cc1ccc(COc2ccc(-c3nc(N)ncc3Oc3ccccc3Br)c(O)c2)cc1 [Compound 15]
% displacement at 10 μM CB2 (CB2 receptor; [2]): 35.5% | Further binding analysis at CB1 (binding curve outcome) (CB1 receptor): no true affinity

% displacement at 10 μM CB2 (CB2 receptor; [2]): 40.2% | Functional phenotype at CB1 in GTPγS assay [1]: inverse agonist | EC50 ([1]; read-out: EC50 CB1 GTPγS): 128 nM | IC50 (CB1 receptor; 16 rescreened, data from Figure 4, up to solubility limit, read-out: IC50 ± SEM CB1 (rescreen)): 0.242 ± 0.07 µM | Ki (CB1 receptor; 16 rescreened, data from Figure 4, up to solubility limit, read-out: Ki ± SEM CB1 (rescreen)): 121 ± 40 nM | IC50 (CB1 receptor; [3]): 20.8 ± 4.9 µM | Ki (CB1 receptor; [4]): 10400 ± 2500 nM | % displacement at 10 μM CB1 (CB1 receptor; [2]): 61.8% | Ki (CB1 receptor; rescreen experiment, value printed in picture, read-out: CB1 Receptor Binding Ki (printed in Figure 4)): 121 nM
SMILES: Cc1noc(-c2ccc(O)cc2O)c1-c1ccc(Br)cc1 [Compound 16]

SMILES: COC(=O)c1ccc(C=C2Oc3c(ccc(O)c3CN(CC(C)C)CC(C)C)C2=O)cc1 [Compound 17]
% displacement at 10 μM CB2 (CB2 receptor; [2]): 35% | Further binding analysis at CB1 (binding curve outcome) (CB1 receptor): no true affinity

IC50 (CB2 receptor): 0.101 ± 0.035 µM | Ki (CB2 receptor; Table 1 and text): 51 ± 10 nM | % displacement at 10 μM CB2 (CB2 receptor; [2]): 61.2% | IC50 (CB1 receptor; [3]): 24.6 ± 2.6 µM | Ki (CB1 receptor; [4]): 12300 ± 1300 nM | % displacement at 10 μM CB1 (CB1 receptor; [2]): 69%
SMILES: CN(Cc1ccccc1)Cc1c(O)ccc2c1OC(=Cc1cn(C)c3ccccc13)C2=O [Compound 18]

Ki (CB2 receptor; Table 2, analogs of compound 16): 156 ± 17.3 nM | % displacement at 10 μM CB2 (CB2 receptor; Table 2, 10 µM): 97.2% | % displacement at 10 μM CB1 (CB1 receptor; Table 2, 10 µM): 29.8%
SMILES: CCCCCCc1cc(-c2onc(C)c2-c2ccc(Br)cc2)c(O)cc1OC [PCB-164]

Ki (CB1 receptor; Table 2, analogs of compound 16, read-out: Ki ± SEM CB1): > 10000 nM | % displacement at 10 μM CB1 (CB1 receptor; Table 2, 10 µM): 33.0%
SMILES: Oc1ccc(-c2onc(C(F)(F)F)c2-c2ccccc2)c(O)c1 [PCB-165]
